How the values were obtained:
Assay in all cases: cells
Type in all cases: functional, cell-based
YH-13 = settings: Homo sapiens
Description: SANGER: Inhibition of human YH-13 cell growth in a cell viability assay.

CWR22R = settings: Homo sapiens, 22Rv1
Description: SANGER: Inhibition of human 22RV1 cell growth in a cell viability assay.

EW-22 = settings: Homo sapiens
Description: SANGER: Inhibition of human EW-22 cell growth in a cell viability assay.

M059J = settings: Homo sapiens
Description: SANGER: Inhibition of human M059J cell growth in a cell viability assay.

HTC-C3 = settings: Homo sapiens
Description: SANGER: Inhibition of human HTC-C3 cell growth in a cell viability assay.

HT-29 = settings: Homo sapiens
Description: SANGER: Inhibition of human HT-29 cell growth in a cell viability assay.

NCI-H2122 = settings: Homo sapiens
Description: SANGER: Inhibition of human NCI-H2122 cell growth in a cell viability assay.

SW1710 = settings: Homo sapiens
Description: SANGER: Inhibition of human SW1710 cell growth in a cell viability assay.

BT-549 = settings: Homo sapiens
Description: SANGER: Inhibition of human BT-549 cell growth in a cell viability assay.

CAL-51 = settings: Homo sapiens
Description: SANGER: Inhibition of human CAL-51 cell growth in a cell viability assay.

HCC1806 = settings: Homo sapiens
Description: SANGER: Inhibition of human HCC1806 cell growth in a cell viability assay.

HSC-4 = settings: Homo sapiens
Description: SANGER: Inhibition of human HSC-4 cell growth in a cell viability assay.

HCT-15 = settings: Homo sapiens
Description: SANGER: Inhibition of human HCT-15 cell growth in a cell viability assay.

P12-Ichikawa = settings: Homo sapiens
U-118-MG = settings: Homo sapiens
Description: SANGER: Inhibition of human U-118-MG cell growth in a cell viability assay.

NCI-H2342 = settings: Homo sapiens
Description: SANGER: Inhibition of human NCI-H2342 cell growth in a cell viability assay.

SCC-25 = settings: Homo sapiens
Description: SANGER: Inhibition of human SCC-25 cell growth in a cell viability assay.

HN = settings: Homo sapiens
Description: SANGER: Inhibition of human HN cell growth in a cell viability assay.

RCM-1 = settings: Homo sapiens
Description: SANGER: Inhibition of human RCM-1 cell growth in a cell viability assay.

HuO9 = settings: Homo sapiens
Description: SANGER: Inhibition of human HuO9 cell growth in a cell viability assay.

NCI-N87 = settings: Homo sapiens
Description: SANGER: Inhibition of human NCI-N87 cell growth in a cell viability assay.

SK-MES-1 = settings: Homo sapiens
Description: SANGER: Inhibition of human SK-MES-1 cell growth in a cell viability assay.

HuO-3N1 = settings: Homo sapiens
Description: SANGER: Inhibition of human HuO-3N1 cell growth in a cell viability assay.

BCPAP = settings: Homo sapiens
Description: SANGER: Inhibition of human BCPAP cell growth in a cell viability assay.

CAL-39 = settings: Homo sapiens
Description: SANGER: Inhibition of human CAL-39 cell growth in a cell viability assay.

D-336MG = settings: Homo sapiens
Description: SANGER: Inhibition of human D-336MG cell growth in a cell viability assay.

HCC1395 = settings: Homo sapiens
Description: SANGER: Inhibition of human HCC1395 cell growth in a cell viability assay.

SK-OV-3 = settings: Homo sapiens
Description: SANGER: Inhibition of human SK-OV-3 cell growth in a cell viability assay.

TI-73 = settings: Homo sapiens
Description: SANGER: Inhibition of human TI-73 cell growth in a cell viability assay.

HEC-1 = settings: Homo sapiens
Description: SANGER: Inhibition of human HEC-1 cell growth in a cell viability assay.

NCI-H1651 = settings: Homo sapiens
Description: SANGER: Inhibition of human NCI-H1651 cell growth in a cell viability assay.

Calu-3 = settings: Homo sapiens
Description: SANGER: Inhibition of human Calu-3 cell growth in a cell viability assay.

FTC-133 = settings: Homo sapiens
MC-IXC = settings: Homo sapiens
Description: SANGER: Inhibition of human MC-IXC cell growth in a cell viability assay.

OE33 = settings: Homo sapiens
Description: SANGER: Inhibition of human OE33 cell growth in a cell viability assay.

SK-MEL-30 = settings: Homo sapiens
Description: SANGER: Inhibition of human SK-MEL-30 cell growth in a cell viability assay.

NCI-H727 = settings: Homo sapiens
Description: SANGER: Inhibition of human NCI-H727 cell growth in a cell viability assay.

MDA-MB-361 = settings: Homo sapiens
BFTC-905 = settings: Homo sapiens
Description: SANGER: Inhibition of human BFTC-905 cell growth in a cell viability assay.

MKN-28 = settings: Homo sapiens
Description: SANGER: Inhibition of human MKN28 cell growth in a cell viability assay.

CAL-54 = settings: Homo sapiens
Description: SANGER: Inhibition of human CAL-54 cell growth in a cell viability assay.

COR-L23 = settings: Homo sapiens
Description: SANGER: Inhibition of human COR-L23 cell growth in a cell viability assay.

RO82-W-1 = settings: Homo sapiens
Description: SANGER: Inhibition of human RO82-W-1 cell growth in a cell viability assay.

T98G = settings: Homo sapiens
Description: SANGER: Inhibition of human T98G cell growth in a cell viability assay.

DOK = settings: Homo sapiens
Description: SANGER: Inhibition of human DOK cell growth in a cell viability assay.

KYSE-150 cell line = settings: Homo sapiens
Description: SANGER: Inhibition of human KYSE-150 cell growth in a cell viability assay.

BEN = settings: Homo sapiens
Description: SANGER: Inhibition of human BEN cell growth in a cell viability assay.

RMG-I = settings: Homo sapiens
Description: SANGER: Inhibition of human RMG-I cell growth in a cell viability assay.

MDA-MB-231 = settings: Homo sapiens
Description: SANGER: Inhibition of human MDA-MB-231 cell growth in a cell viability assay.

NCI-H520 = settings: Homo sapiens
Description: SANGER: Inhibition of human NCI-H520 cell growth in a cell viability assay.

ChaGo-K-1 = settings: Homo sapiens
Description: SANGER: Inhibition of human ChaGo-K-1 cell growth in a cell viability assay.

## CC[C@@]1(O)C(=O)OCc2c1cc1n(c2=O)Cc2cc3ccccc3nc2-1 [CAMPTOTHECIN]
YH-13
  IC50: 11.6 nM
CWR22R
  IC50: 9.31 nM
EW-22
  IC50: 0.557 nM
M059J
  IC50: 4.1 nM
HTC-C3
  IC50: 31.5 nM
HT-29
  IC50: 85.5 nM
NCI-H2122
  IC50: 13 nM
SW1710
  IC50: 33.6 nM
BT-549
  IC50: 17.6 nM
CAL-51
  IC50: 29.7 nM
HCC1806
  IC50: 3.14 nM
HSC-4
  IC50: 0.182 nM
HCT-15
  IC50: > 100 nM
P12-Ichikawa
  IC50: 0.102 nM
U-118-MG
  IC50: 19 nM
NCI-H2342
  IC50: > 100 nM
SCC-25
  IC50: 56.7 nM
HN
  IC50: 1.4 nM
RCM-1
  IC50: 28.7 nM
HuO9
  IC50: 2.88 nM
NCI-N87
  IC50: 8.74 nM
SK-MES-1
  IC50: 10.8 nM
HuO-3N1
  IC50: 12.7 nM
BCPAP
  IC50: 3.04 nM
CAL-39
  IC50: 19.2 nM
D-336MG
  IC50: 5.2 nM
HCC1395
  IC50: > 100 nM
SK-OV-3
  IC50: > 100 nM
TI-73
  IC50: 14.6 nM
HEC-1
  IC50: 18.1 nM
NCI-H1651
  IC50: 14.9 nM
Calu-3
  IC50: 32.8 nM
FTC-133
  IC50: 4.57 nM
MC-IXC
  IC50: 0.513 nM
OE33
  IC50: 25.6 nM
SK-MEL-30
  IC50: > 100 nM
NCI-H727
  IC50: > 100 nM
MDA-MB-361
  IC50: 34.4 nM
BFTC-905
  IC50: 0.14 nM
MKN-28
  IC50: 51.2 nM
CAL-54
  IC50: 4.76 nM
COR-L23
  IC50: 6.85 nM
RO82-W-1
  IC50: 14.9 nM
T98G
  IC50: 27.2 nM
DOK
  IC50: 18.9 nM

## C[C@]12O[C@H](C[C@]1(O)CO)n1c3ccccc3c3c4c(c5c6ccccc6n2c5c31)CNC4=O [LESTAURTINIB]
YH-13
  IC50: 135 nM
CWR22R
  IC50: 1400 nM
EW-22
  IC50: 862 nM
M059J
  IC50: 516 nM
KYSE-150 cell line
  IC50: 651 nM
HTC-C3
  IC50: 186 nM
HT-29
  IC50: 666 nM
NCI-H2122
  IC50: 1920 nM
SW1710
  IC50: 128 nM
BT-549
  IC50: 163 nM
CAL-51
  IC50: 278 nM
BEN
  IC50: > 2000 nM
HCC1806
  IC50: 127 nM
HSC-4
  IC50: 203 nM
HCT-15
  IC50: 566 nM
P12-Ichikawa
  IC50: 26.2 nM
U-118-MG
  IC50: > 2000 nM
NCI-H2342
  IC50: > 2000 nM
SCC-25
  IC50: 758 nM
HN
  IC50: 182 nM
RCM-1
  IC50: 1590 nM
HuO9
  IC50: 561 nM
NCI-N87
  IC50: > 2000 nM
SK-MES-1
  IC50: 46.5 nM
HuO-3N1
  IC50: 605 nM
BCPAP
  IC50: 970 nM
RMG-I
  IC50: > 2000 nM
MDA-MB-231
  IC50: 586 nM
CAL-39
  IC50: 481 nM
D-336MG
  IC50: 193 nM
HCC1395
  IC50: > 2000 nM
SK-OV-3
  IC50: 224 nM
TI-73
  IC50: 235 nM
HEC-1
  IC50: 374 nM
NCI-H1651
  IC50: > 2000 nM
Calu-3
  IC50: > 2000 nM
FTC-133
  IC50: 158 nM
MC-IXC
  IC50: 13.5 nM
OE33
  IC50: > 2000 nM
SK-MEL-30
  IC50: 512 nM
NCI-H520
  IC50: 203 nM
NCI-H727
  IC50: 768 nM
MDA-MB-361
  IC50: 1250 nM
BFTC-905
  IC50: 250 nM
MKN-28
  IC50: > 2000 nM
CAL-54
  IC50: 178 nM
ChaGo-K-1
  IC50: 1960 nM
COR-L23
  IC50: 665 nM
RO82-W-1
  IC50: > 2000 nM
T98G
  IC50: 327 nM
DOK
  IC50: 297 nM

## C[C@]1(c2nc3c(C(N)=O)cccc3[nH]2)CCCN1 [VELIPARIB]
YH-13
  IC50: > 5000 nM
CWR22R
  IC50: > 5000 nM
EW-22
  IC50: > 5000 nM
M059J
  IC50: > 5000 nM
KYSE-150 cell line
  IC50: > 5000 nM
HTC-C3
  IC50: > 5000 nM
HT-29
  IC50: > 5000 nM
NCI-H2122
  IC50: > 5000 nM
SW1710
  IC50: > 5000 nM
BT-549
  IC50: > 5000 nM
CAL-51
  IC50: > 5000 nM
BEN
  IC50: > 5000 nM
HCC1806
  IC50: > 5000 nM
HSC-4
  IC50: > 5000 nM
HCT-15
  IC50: > 5000 nM
P12-Ichikawa
  IC50: > 5000 nM
U-118-MG
  IC50: > 5000 nM
NCI-H2342
  IC50: > 5000 nM
SCC-25
  IC50: > 5000 nM
HN
  IC50: > 5000 nM
RCM-1
  IC50: > 5000 nM
HuO9
  IC50: > 5000 nM
NCI-N87
  IC50: > 5000 nM
SK-MES-1
  IC50: > 5000 nM
HuO-3N1
  IC50: > 5000 nM
BCPAP
  IC50: > 5000 nM
RMG-I
  IC50: > 5000 nM
MDA-MB-231
  IC50: > 5000 nM
CAL-39
  IC50: > 5000 nM
D-336MG
  IC50: > 5000 nM
HCC1395
  IC50: > 5000 nM
SK-OV-3
  IC50: > 5000 nM
TI-73
  IC50: > 5000 nM
HEC-1
  IC50: > 5000 nM
NCI-H1651
  IC50: > 5000 nM
Calu-3
  IC50: > 5000 nM
FTC-133
  IC50: > 5000 nM
MC-IXC
  IC50: > 5000 nM
OE33
  IC50: > 5000 nM
SK-MEL-30
  IC50: > 5000 nM
NCI-H520
  IC50: > 5000 nM
NCI-H727
  IC50: > 5000 nM
MDA-MB-361
  IC50: > 5000 nM
BFTC-905
  IC50: > 5000 nM
MKN-28
  IC50: > 5000 nM
CAL-54
  IC50: > 5000 nM
ChaGo-K-1
  IC50: > 5000 nM
COR-L23
  IC50: > 5000 nM
RO82-W-1
  IC50: > 5000 nM
T98G
  IC50: > 5000 nM
DOK
  IC50: > 5000 nM
